Data taken from US20100215579A1, “PHEN-NAPHTHALENE AND PHEN-QUINOLINE DERIVATIVES AND THEIR USE FOR BINDING AND IMAGING AMYLOID PLAQUES” (The Trustees of the University of Pennsylvania, priority 2007, published 2010).

Experiments:
[1] = Biodistribution in ICR mice after an iv injection; assay type: in vivo
Source text: Biodistribution in ICR Mice After an iv Injection of [^18F][4-(6-{2-[2-(2-Fluoro-ethoxy)-ethoxy]-ethoxy}-naphthalen-2-yl)-phenyl]-methyl-amine in 1% EtOH/0.1% BSA in Water
(% dose/organ, avg of 3 mice±SD)
(% dose/g, avg of 3 mice±SD)
Biodistribution in ICR Mice After an iv Injection of [^18F]19a in 3% EtOH/0.1% BSA in Water
Biodistribution in ICR Mice After an iv Injection of [^18F]34a in 5% EtOH/0.1% BSA in Water
Biodistribution in ICR Mice After an iv Injection of [^18F]32a in 1% EtOH/0.1% BSA in Water

[2] = Log P (octanol/Na2HPO4 buffer pH 7.4); assay type: physicochemical; conditions: octanol/0.1 M Na2HPO4 buffer (pH 7.4)
[3] = Blood, 2 min after iv injection
[4] = Blood, 30 min after iv injection
[5] = Bone, 30 min after iv injection
[6] = Brain, 2 min after iv injection
[7] = Brain, 30 min after iv injection
[8] = Heart, 2 min after iv injection
[9] = Heart, 30 min after iv injection
[10] = Kidney, 2 min after iv injection
[11] = Kidney, 30 min after iv injection
[12] = Kidney, 1 hr after iv injection
[13] = Kidney, 2 hr after iv injection
[14] = Liver, 2 min after iv injection
[15] = Liver, 30 min after iv injection
[16] = Lung, 30 min after iv injection
[17] = Muscle, 2 min after iv injection
[18] = Muscle, 30 min after iv injection
[19] = Muscle, 1 hr after iv injection
[20] = Muscle, 2 hr after iv injection
[21] = Skin, 30 min after iv injection
[22] = Spleen, 2 min after iv injection
[23] = Spleen, 30 min after iv injection
[24] = Spleen, 1 hr after iv injection
[25] = Spleen, 2 hr after iv injection

Compound: CN(C)c1ccc(-c2ccc3nc(OCCOCCOCC[18F])ccc3c2)cc1 [[^18F]32a]
- % dose/g [1, 3]: 1.80 ± 0.28 % dose/g
- % dose/organ [1, 3]: 3.32 ± 0.46 % dose/organ
- % dose/g [1, 4]: 0.99 ± 0.12 % dose/g
- % dose/organ [1, 4]: 1.80 ± 0.14 % dose/organ
- % dose/g ([1]; Blood, 1 hr after iv injection): 1.37 ± 0.14 % dose/g
- % dose/organ ([1]; Blood, 1 hr after iv injection): 2.40 ± 0.19 % dose/organ
- % dose/g ([1]; Blood, 2 hr after iv injection): 1.13 ± 0.15 % dose/g
- % dose/organ ([1]; Blood, 2 hr after iv injection): 2.00 ± 0.25 % dose/organ
- % dose/g ([1]; Bone, 2 min after iv injection): 1.25 ± 0.06 % dose/g
- % dose/organ ([1]; Bone, 2 min after iv injection): 4.63 ± 0.32 % dose/organ
- % dose/g [1, 5]: 0.81 ± 0.11 % dose/g
- % dose/organ [1, 5]: 2.92 ± 0.27 % dose/organ
- % dose/g ([1]; Bone, 1 hr after iv injection): 1.11 ± 0.14 % dose/g
- % dose/organ ([1]; Bone, 1 hr after iv injection): 3.91 ± 0.37 % dose/organ
- % dose/g ([1]; Bone, 2 hr after iv injection): 1.47 ± 0.27 % dose/g
- % dose/organ ([1]; Bone, 2 hr after iv injection): 5.19 ± 0.80 % dose/organ
- % dose/g [1, 6]: 7.76 ± 1.25 % dose/g
- % dose/organ [1, 6]: 3.56 ± 0.47 % dose/organ
- % dose/g [1, 7]: 2.33 ± 0.68 % dose/g
- % dose/organ [1, 7]: 1.07 ± 0.24 % dose/organ
- % dose/g ([1]; Brain, 1 hr after iv injection): 1.92 ± 0.31 % dose/g
- % dose/organ ([1]; Brain, 1 hr after iv injection): 0.86 ± 0.14 % dose/organ
- % dose/g ([1]; Brain, 2 hr after iv injection): 1.45 ± 0.11 % dose/g
- % dose/organ ([1]; Brain, 2 hr after iv injection): 0.66 ± 0.03 % dose/organ
- % dose/g [1, 8]: 10.1 ± 1.14 % dose/g
- % dose/organ [1, 8]: 1.36 ± 0.20 % dose/organ
- % dose/g [1, 9]: 1.99 ± 0.43 % dose/g
- % dose/organ [1, 9]: 0.26 ± 0.06 % dose/organ
- % dose/g ([1]; Heart, 1 hr after iv injection): 2.07 ± 0.23 % dose/g
- % dose/organ ([1]; Heart, 1 hr after iv injection): 0.25 ± 0.03 % dose/organ
- % dose/g ([1]; Heart, 2 hr after iv injection): 1.28 ± 0.09 % dose/g
- % dose/organ ([1]; Heart, 2 hr after iv injection): 0.15 ± 0.01 % dose/organ
- % dose/g [1, 10]: 13.0 ± 3.04 % dose/g
- % dose/organ [1, 10]: 5.25 ± 0.89 % dose/organ
- % dose/g [1, 11]: 3.61 ± 0.65 % dose/g
- % dose/organ [1, 11]: 1.55 ± 0.33 % dose/organ
- % dose/g [1, 12]: 3.38 ± 0.38 % dose/g
- % dose/organ [1, 12]: 1.24 ± 0.19 % dose/organ
- % dose/g [1, 13]: 1.78 ± 0.06 % dose/g
- % dose/organ [1, 13]: 0.73 ± 0.02 % dose/organ
- % dose/g [1, 14]: 16.3 ± 4.96 % dose/g
- % dose/organ [1, 14]: 19.4 ± 3.67 % dose/organ
- % dose/g [1, 15]: 8.02 ± 0.65 % dose/g
- % dose/organ [1, 15]: 11.2 ± 1.65 % dose/organ
- % dose/g ([1]; Liver, 1 hr after iv injection): 8.10 ± 1.59 % dose/g
- % dose/organ ([1]; Liver, 1 hr after iv injection): 9.75 ± 1.79 % dose/organ
- % dose/g ([1]; Liver, 2 hr after iv injection): 5.22 ± 0.49 % dose/g
- % dose/organ ([1]; Liver, 2 hr after iv injection): 6.34 ± 0.87 % dose/organ
- % dose/g ([1]; Lung, 2 min after iv injection): 7.63 ± 0.46 % dose/g
- % dose/organ ([1]; Lung, 2 min after iv injection): 1.54 ± 0.16 % dose/organ
- % dose/g [1, 16]: 2.31 ± 0.42 % dose/g
- % dose/organ [1, 16]: 0.42 ± 0.07 % dose/organ
- % dose/g ([1]; Lung, 1 hr after iv injection): 2.21 ± 0.19 % dose/g
- % dose/organ ([1]; Lung, 1 hr after iv injection): 0.40 ± 0.01 % dose/organ
- % dose/g ([1]; Lung, 2 hr after iv injection): 1.43 ± 0.03 % dose/g
- % dose/organ ([1]; Lung, 2 hr after iv injection): 0.27 ± 0.00 % dose/organ
- % dose/g [1, 17]: 0.83 ± 0.19 % dose/g
- % dose/organ [1, 17]: 8.87 ± 2.47 % dose/organ
- % dose/g [1, 18]: 1.20 ± 0.28 % dose/g
- % dose/organ [1, 18]: 12.3 ± 2.18 % dose/organ
- % dose/g [1, 19]: 1.09 ± 0.09 % dose/g
- % dose/organ [1, 19]: 11.0 ± 0.64 % dose/organ
- % dose/g [1, 20]: 0.81 ± 0.14 % dose/g
- % dose/organ [1, 20]: 8.16 ± 1.14 % dose/organ
- % dose/g ([1]; Skin, 2 min after iv injection): 0.42 ± 0.06 % dose/g
- % dose/organ ([1]; Skin, 2 min after iv injection): 1.68 ± 0.22 % dose/organ
- % dose/g [1, 21]: 0.98 ± 0.33 % dose/g
- % dose/organ [1, 21]: 3.86 ± 1.41 % dose/organ
- % dose/g ([1]; Skin, 1 hr after iv injection): 0.94 ± 0.06 % dose/g
- % dose/organ ([1]; Skin, 1 hr after iv injection): 3.53 ± 0.16 % dose/organ
- % dose/g ([1]; Skin, 2 hr after iv injection): 0.82 ± 0.15 % dose/g
- % dose/organ ([1]; Skin, 2 hr after iv injection): 3.11 ± 0.48 % dose/organ
- % dose/g [1, 22]: 4.95 ± 0.78 % dose/g
- % dose/organ [1, 22]: 0.51 ± 0.09 % dose/organ
- % dose/g [1, 23]: 1.56 ± 0.28 % dose/g
- % dose/organ [1, 23]: 0.15 ± 0.03 % dose/organ
- % dose/g [1, 24]: 1.64 ± 0.13 % dose/g
- % dose/organ [1, 24]: 0.15 ± 0.04 % dose/organ
- % dose/g [1, 25]: 1.16 ± 0.07 % dose/g
- % dose/organ [1, 25]: 0.09 ± 0.01 % dose/organ
- Log P [2]: 2.77
